Target: T1, PYL4-HAB1 (Arabidopsis thaliana, UniProt O80920)
T1 construct: BD-PYR/PYL fusion proteins were constructed in the same manner as for BD-PYR1 above; expressed in transfected cells; host or cells: yeast (Y190, as for BD-PYR1)
T1 sequence (O80920 1-207): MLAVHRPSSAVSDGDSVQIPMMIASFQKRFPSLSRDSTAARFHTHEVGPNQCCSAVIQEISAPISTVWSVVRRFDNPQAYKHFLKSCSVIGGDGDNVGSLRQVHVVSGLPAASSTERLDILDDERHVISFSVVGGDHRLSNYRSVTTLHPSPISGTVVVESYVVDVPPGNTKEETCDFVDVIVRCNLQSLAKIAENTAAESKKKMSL
T1 sequence (Q9CAJ0 23-511 partner): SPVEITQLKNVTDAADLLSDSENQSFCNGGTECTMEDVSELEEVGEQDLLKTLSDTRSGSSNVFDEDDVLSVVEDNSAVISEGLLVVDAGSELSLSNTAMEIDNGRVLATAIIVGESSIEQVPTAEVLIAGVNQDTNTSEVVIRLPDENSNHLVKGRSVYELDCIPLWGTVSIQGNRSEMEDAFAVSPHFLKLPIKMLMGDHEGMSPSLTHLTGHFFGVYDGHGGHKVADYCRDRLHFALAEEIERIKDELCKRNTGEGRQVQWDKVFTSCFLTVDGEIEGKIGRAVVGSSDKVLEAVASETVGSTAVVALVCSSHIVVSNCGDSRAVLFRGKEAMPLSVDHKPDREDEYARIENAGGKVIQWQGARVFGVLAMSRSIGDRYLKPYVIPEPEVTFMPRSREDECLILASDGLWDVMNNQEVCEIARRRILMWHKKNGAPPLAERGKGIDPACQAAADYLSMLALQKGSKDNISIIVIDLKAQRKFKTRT
Test: Yeast two-hybrid BD-PYL4 / AD-HAB1 interaction
Type: cell-based
Conditions: 10 μM
Method: Given that PYR1 is necessary for pyrabactin action and is a predicted ligand-binding protein, we hypothesized that pyrabactin agonizes ABA signaling by inducing a protein-protein interaction between PYR1 and a downstream effector. To test this, ˜2 million prey cDNA clones were screened against a PYR1 Y2H bait construct on media containing 10 μM pyrabactin. To create the PYR1 Y2H bait construct, the Pyr1 open reading frame was PCR amplified from genomic DNA and cloned to pGem-T easy vector (Promega). After sequence confirmation, the Pyr1 ORF was then cloned in-frame between EcoRI and SalI sites of the pBD-GAL4 Cam vector (Stratagene) and transformed into yeast strain Y190. For the screen, an etiolated seedling cDNA library (J. Kim, K., Harter, A., Theologis, Proc Natl Acad Sci USA 94, 11786 (Oct. 28, 1997)) (ABRC stock CD4-22) was used. The cDNA library was first converted from phage to plasmid DNA, yielding 7.6×10^7 transformants. Plasmid DNA prepared from library was then used to transform Y190 as described in the GAL4 Two-Hybrid system manual (Stratagene). For each screen, 40 μg of prey plasmid was transformed into 1 ml of competent Y190 cell harboring bait construct and then grown on SD agar plates lacking His, Leu, and Trp, but containing 15 mM 3-AT and 10 μM pyrabactin. After 4 days incubation at 30° C., well-grown colonies were rescued and interactions validated using filter lift assay or chloroform-agarose overlay method and X-Gal staining. This identified two pyrabactin-dependent hits which sequencing determined encoded cDNAs for the PP2C HAB1, a close relative of the well-characterized ABA response factor ABI1 (A. Saez et al., The Plant Journal 37, 354 (2004); N. Leonhardt et al., THE PLANT CELL 16, 596 (2004)). Next, Y2H strains expressing an AD-HAB1 fusion protein and a BD-PYR1 fusion protein were grown on plates and tested for interactions in response to various compounds, all at 10 μM except for epi-brassinolide (50 nM) and dimethyl sulfoxide (DMSO) (carrier solvent, 1%). […] Thus, PYR1 interacts with HAB1 in a (+)-ABA dependent fashion.
To see if ABA and pyrabactin responsiveness is unique to PYR1, we tested 11 of the 13 PYL proteins as described above, using Y2H strains expressing an AD-HAB1 fusion protein and a BD-PYR/PYL fusion protein (listed at the left of FIG. 3A). BD-PYR/PYL fusion proteins were constructed in the same manner as for BD-PYR1 above. […] Of these, only Pyr1 is highly transcribed in seeds, which likely explains why mutations in Pyr1 cause the seeds to be insensitive to pyrabactin. […] However the interactions of PYLs 5-12 with the PP2Cs are indicative that the entire protein family is likely to share a similar mechanism of action involving PP2C modulation, as we describe below. […]

Structure (SMILES)	PYL4-HAB1 interaction by X-gal stain
CC1=CC(=O)CC(C)(C)C1(O)/C=C/C(C)=C\C(=O)O (single isomer, unassigned; (+)) [(+)-ABA]	respond
CC1=CC(=O)CC(C)(C)[C@@]1(O)/C=C/C(C)=C\C(=O)O [ABA, Abscisic acid]	interact with HAB1 in an ABA-stimulated manner
